Patent US9458101B2 (priority 2009, dated 2016)

Key:
[1] = system: A549 (Human lung carcinoma); experiment: Cytotoxicity testing (MTS) on A549; format: cell-based
Experimental: (§1) Cell lines used were A549 (Human lung carcinoma), HeLa (Human cervical carcinoma), MCF-7 (Human mammary gland adenocarcinoma), CEM (Human T-lymphoblastoid from ALL (Acute lymphoblastic leukemia)), M010B (Human glioma), M006X (Human glioma) and Jurkat (Human T-cell leukemia).
(§2) A series of dilutions were prepared and a wavelength scan of the diluted solution was used to determine the wavelength of maximum absorbance for each compound. Five standardized drug concentrations were scanned at this pre-determined wavelength to obtain an estimate of the compound's extinction coefficient.
(§3) A primary MTS assay was used to test the optimal number of cells for cytotoxicity assays. Cells were trypsinized, counted and introduced into seven lanes of a 96-well plate at different cell numbers (eight replicates per lane). Optimal cell numbers were determined after 72 and 96 hours of growth and were used in subsequent cytotoxicity assays. […] Cell viability was determined using the Cell Titer 96 AQueous One Solution Cell Proliferation Assay (Promega, U.S.A.).
(§4) Fits were performed using a dose-response model ideal for data showing an initial response plateau, a transition region, and a final response plateau.
(§5) [formula] […] Itop is the response obtained at very low/no drug concentration. The data and all parameters were normalized to Itop−Ibot, a measure of the maximum effect of the drug.

[2] = system: CEM (Human T-lymphoblastoid from ALL); experiment: Cytotoxicity testing (MTS) on CEM; format: cell-based
Experimental: as §1, §2, §3, §4, §5

[3] = system: A549, HeLa, MCF-7 and CEM cell lines; experiment: Cytotoxicity, mean over A549, HeLa, MCF-7 and CEM cell lines; details: for cytotoxicity compared with colchicine: cytotoxicity assays; for IC50 [log10 M] (mean logIC50): mean over A549, HeLa, MCF-7 and CEM cell lines
Text: as §1, §3, §5
Cytotoxicity screening was performed on a number of cell lines based on the cancer of origin and differing morphologies.

[4] = system: HeLa (Human cervical carcinoma); experiment: Cytotoxicity testing (MTS) on HeLa; format: cell-based
Experimental: as §1, §2, §3, §4, §5

[5] = system: MCF-7 (Human mammary gland adenocarcinoma); experiment: Cytotoxicity testing (MTS) on MCF-7; format: cell-based
Experimental: as §1, §2, §3, §4, §5

| Structure (SMILES) | Fraction of cells that survive at the highest drug concentrations (Ibot) [1] | logIC50 [1] | Fraction of cells that survive at the highest drug concentrations (Ibot) [2] | logIC50 [2] | average IC50 values compared with colchicine ([3]; average values of Table 3) | cytotoxicity compared with colchicine [3] | IC50 [log10 M] (mean logIC50) [3] | Fraction of cells that survive at the highest drug concentrations (Ibot) [4] | logIC50 [4] | Fraction of cells that survive at the highest drug concentrations (Ibot) [5] | logIC50 [5] |
| --- | --- | --- | --- | --- | --- | --- | --- | --- | --- | --- | --- |
| COc1cc2c(c(OC(C)C)c1OC)-c1ccc(OC)c(=O)cc1[C@@H](NC(C)=O)CC2 [Compound 7, N-[(7S)-1-(ethoxy-1-methyl)-2,3,10-trimethoxy-9-oxo-5,6,7,9-tetrahydrobenzo[α]heptalen-7-yl]acetamide] | 0.229 ± 0.014 | −7.66 ± 0.08 log10 M | 0.000 ± 0.014 | −8.49 ± 0.10 log10 M | stronger than colchicine | moderately better than colchicine | −8.12 ± 0.08 log10 M | 0.066 ± 0.022 | −8.25 ± 0.09 log10 M | 0.464 ± 0.009 | −8.10 ± 0.05 log10 M |
| CCC(=O)Oc1c(OC)c(OC)cc2c1-c1ccc(OC)c(=O)cc1[C@@H](NC(C)=O)CC2 [Compound 4, N-[(7S)-1-((ethyl)carbonyloxy)-2,3,10-trimethoxy-9-oxo-5,6,7,9-tetrahydrobenzo[α]heptalen-7-yl]cetamide] | 0.332 ± 0.028 | −5.07 ± 0.04 log10 M | −0.031 ± 0.049 | −5.39 ± 0.11 log10 M |  |  | −5.27 ± 0.09 log10 M | 0.058 ± 0.048 | −5.41 ± 0.13 log10 M | 0.399 ± 0.021 | −5.23 ± 0.07 log10 M |
| COc1cc2c(c(OC(C)=O)c1OC)-c1ccc(OC)c(=O)cc1[C@@H](NC(C)=O)CC2 [Compound 2, N-[(7S)-2,3,10-trimethoxy-1-((methyl)carbonyloxy)-9-oxo-5,6,7,9-tetrahydrobenzo[α]heptalen-7-yl]acetamide] | 0.283 ± 0.022 | −5.89 ± 0.06 log10 M | 0.027 ± 0.021 | −6.65 ± 0.08 log10 M |  |  | −6.34 ± 0.09 log10 M | 0.074 ± 0.031 | −6.48 ± 0.13 log10 M | 0.424 ± 0.019 | −6.32 ± 0.10 log10 M |
| COc1c(O)cc2c(c1OC)-c1ccc(OC)c(=O)cc1[C@@H](NC(C)=O)CC2 [Compound 50] |  |  |  |  |  | consistently the most effective |  |  |  |  |  |
| COc1cc2c(c(O)c1OC)-c1ccc(OC)c(=O)cc1[C@@H](NC(C)=O)CC2 [Compound 3, N-[(7S)-1-hydroxy-2,3,10-trimethoxy-9-oxo-5,6,7,9-tetrahydrobenzo[α]heptalen-7-yl]acetamide] | 0.235 ± 0.048 | −5.29 ± 0.11 log10 M |  |  |  |  |  |  |  | 0.518 ± 0.033 | −5.25 ± 0.10 log10 M |
| COc1c(O)cc2c(c1OC)-c1ccc(SC)c(=O)cc1[C@@H](NC(C)=O)CC2 [Compound 40, N-[(7S)-3-hydroxy-1,2-dimethoxy-3-hydroxy-10-methylsulfanyl-9-oxo-5,6,7,9-tetrahydrobenzo[α]heptalen-7-yl]acetamide] |  |  |  |  |  | consistently the most effective |  |  |  |  |  |
